In ChEMBL document CHEMBL1909046, “DrugMatrix in vitro pharmacology data”:

Assays:
[1] = target: Beta-1 adrenergic receptor (Homo sapiens, UniProt P08588); assay: DRUGMATRIX: Adrenergic beta1 radioligand binding (ligand: [125I] Cyanopindolol); assay type: cell membranes, CHO-K1, Membrane; conditions: cho-k1; Not Active = under 50% inhibition at 10 µM
[2] = target: 5-hydroxytryptamine receptor 2B (Homo sapiens, UniProt P41595); assay type: cell membranes, CHO-K1, Membrane; further: in other assays of this panel Not Active means under 50% inhibition at 10 µM
[3] = target: T1, Cholecystokinin receptor type A (Homo sapiens, UniProt P32238); assay type: cell membranes, Membrane; conditions: 1321-n1; further: in other assays of this panel Not Active means under 50% inhibition at 10 µM
T1 sequence (P32238 whole entry): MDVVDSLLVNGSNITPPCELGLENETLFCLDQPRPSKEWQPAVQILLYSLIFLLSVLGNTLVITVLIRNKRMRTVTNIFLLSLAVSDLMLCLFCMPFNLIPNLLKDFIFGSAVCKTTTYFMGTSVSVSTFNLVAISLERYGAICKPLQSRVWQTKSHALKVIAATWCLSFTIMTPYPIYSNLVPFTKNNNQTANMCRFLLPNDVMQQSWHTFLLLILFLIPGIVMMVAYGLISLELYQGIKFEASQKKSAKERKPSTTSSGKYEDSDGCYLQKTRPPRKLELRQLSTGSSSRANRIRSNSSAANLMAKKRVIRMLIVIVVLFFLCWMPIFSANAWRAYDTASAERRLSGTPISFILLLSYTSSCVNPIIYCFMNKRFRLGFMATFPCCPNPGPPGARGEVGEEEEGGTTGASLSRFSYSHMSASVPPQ

[4] = DRUGMATRIX: GABAA, Chloride Channel, TBOB radioligand binding (ligand: [3H] TBOB); assay type: cell membranes, Rattus norvegicus, Wistar, Cerebral cortex, Membrane; conditions: Not Active = under 50% inhibition at 10 µM
[5] = target: Kappa-type opioid receptor (Homo sapiens, UniProt P41145); assay: DRUGMATRIX: Opiate kappa (OP2, KOP) radioligand binding (ligand: [3H] Diprenorphine); assay type: cell membranes, HEK293, Membrane; conditions: Not Active = under 50% inhibition at 10 µM
[6] = DRUGMATRIX: Phosphodiesterase PDE3 enzyme inhibition (substrate: [3H]cAMP + cAMP); assay type: tissue-based, Homo sapiens; conditions: platelet; Not Active = under 50% inhibition at 10 µM
[7] = target: T2, Angiotensin-converting enzyme (Oryctolagus cuniculus, UniProt P12822); assay type: tissue-based, Lung;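 further: enzymatic inhibition of angiotensin-converting enzyme measured with FAPGG as the substrate; in other assays of this panel Not Active means under 50% inhibition at 10 µM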
T2 sequence (P12822 whole entry): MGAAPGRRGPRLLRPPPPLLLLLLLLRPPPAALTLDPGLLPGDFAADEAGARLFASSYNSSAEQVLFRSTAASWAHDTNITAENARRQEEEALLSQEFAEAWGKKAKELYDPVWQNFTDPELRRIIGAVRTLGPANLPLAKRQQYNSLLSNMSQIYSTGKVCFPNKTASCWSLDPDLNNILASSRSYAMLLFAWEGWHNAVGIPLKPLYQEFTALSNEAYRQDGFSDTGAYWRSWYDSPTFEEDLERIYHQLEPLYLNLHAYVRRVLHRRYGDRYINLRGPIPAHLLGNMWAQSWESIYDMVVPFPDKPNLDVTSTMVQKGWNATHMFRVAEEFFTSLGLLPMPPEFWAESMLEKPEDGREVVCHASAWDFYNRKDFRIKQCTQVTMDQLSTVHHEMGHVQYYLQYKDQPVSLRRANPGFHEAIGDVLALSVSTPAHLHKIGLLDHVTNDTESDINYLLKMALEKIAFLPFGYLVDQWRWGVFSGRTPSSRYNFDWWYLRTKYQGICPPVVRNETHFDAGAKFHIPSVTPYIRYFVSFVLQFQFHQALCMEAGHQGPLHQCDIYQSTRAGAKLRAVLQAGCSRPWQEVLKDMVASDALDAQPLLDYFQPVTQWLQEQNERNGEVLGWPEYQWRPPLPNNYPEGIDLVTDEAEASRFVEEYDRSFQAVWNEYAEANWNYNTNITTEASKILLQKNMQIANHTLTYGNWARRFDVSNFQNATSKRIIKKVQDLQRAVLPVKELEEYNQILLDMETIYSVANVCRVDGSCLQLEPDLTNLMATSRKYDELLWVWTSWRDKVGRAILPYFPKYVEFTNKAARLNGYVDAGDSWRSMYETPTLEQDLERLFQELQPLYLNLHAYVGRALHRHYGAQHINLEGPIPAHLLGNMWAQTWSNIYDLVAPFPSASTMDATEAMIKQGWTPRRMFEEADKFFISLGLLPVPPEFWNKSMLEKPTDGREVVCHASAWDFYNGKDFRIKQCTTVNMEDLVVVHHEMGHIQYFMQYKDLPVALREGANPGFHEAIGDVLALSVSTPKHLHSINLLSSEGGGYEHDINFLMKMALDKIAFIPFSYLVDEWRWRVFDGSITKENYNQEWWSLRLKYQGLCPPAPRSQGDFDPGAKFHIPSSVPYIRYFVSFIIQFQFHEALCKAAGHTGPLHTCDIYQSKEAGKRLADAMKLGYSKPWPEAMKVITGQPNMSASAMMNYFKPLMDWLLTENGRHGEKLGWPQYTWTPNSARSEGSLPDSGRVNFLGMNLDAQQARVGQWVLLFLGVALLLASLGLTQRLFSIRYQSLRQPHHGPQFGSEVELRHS

Caspase-1 = target: T3, Caspase-1 (Homo sapiens, UniProt P29466); design: species or system Escherichia coli;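 further: Caspase-1 enzyme inhibition assay with a peptide substrate; in other assays of this panel Not Active means under 50% inhibition at 10 µM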
T3 sequence (P29466 whole entry): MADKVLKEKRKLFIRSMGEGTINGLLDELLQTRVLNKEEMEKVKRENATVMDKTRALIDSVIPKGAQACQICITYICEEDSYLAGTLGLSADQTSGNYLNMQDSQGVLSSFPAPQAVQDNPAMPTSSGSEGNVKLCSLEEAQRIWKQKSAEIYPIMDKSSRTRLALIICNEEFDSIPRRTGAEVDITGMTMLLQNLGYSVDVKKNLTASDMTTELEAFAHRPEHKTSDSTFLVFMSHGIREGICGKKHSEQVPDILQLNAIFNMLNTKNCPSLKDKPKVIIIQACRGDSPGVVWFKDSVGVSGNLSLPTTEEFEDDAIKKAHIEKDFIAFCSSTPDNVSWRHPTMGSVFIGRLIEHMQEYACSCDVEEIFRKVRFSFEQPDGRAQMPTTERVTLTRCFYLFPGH

Kappa-type opioid receptor, sequence (P41145 whole entry): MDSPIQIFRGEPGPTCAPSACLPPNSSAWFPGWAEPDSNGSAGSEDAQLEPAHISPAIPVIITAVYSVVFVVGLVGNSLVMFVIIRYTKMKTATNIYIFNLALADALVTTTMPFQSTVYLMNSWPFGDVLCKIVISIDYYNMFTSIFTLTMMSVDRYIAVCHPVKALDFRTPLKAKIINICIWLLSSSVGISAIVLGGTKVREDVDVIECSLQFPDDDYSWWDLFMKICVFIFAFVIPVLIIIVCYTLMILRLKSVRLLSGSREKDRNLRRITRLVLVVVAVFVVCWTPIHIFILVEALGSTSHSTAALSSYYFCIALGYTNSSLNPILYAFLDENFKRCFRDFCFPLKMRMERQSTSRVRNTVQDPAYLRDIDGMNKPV
Beta-1 adrenergic receptor, sequence (P08588 whole entry): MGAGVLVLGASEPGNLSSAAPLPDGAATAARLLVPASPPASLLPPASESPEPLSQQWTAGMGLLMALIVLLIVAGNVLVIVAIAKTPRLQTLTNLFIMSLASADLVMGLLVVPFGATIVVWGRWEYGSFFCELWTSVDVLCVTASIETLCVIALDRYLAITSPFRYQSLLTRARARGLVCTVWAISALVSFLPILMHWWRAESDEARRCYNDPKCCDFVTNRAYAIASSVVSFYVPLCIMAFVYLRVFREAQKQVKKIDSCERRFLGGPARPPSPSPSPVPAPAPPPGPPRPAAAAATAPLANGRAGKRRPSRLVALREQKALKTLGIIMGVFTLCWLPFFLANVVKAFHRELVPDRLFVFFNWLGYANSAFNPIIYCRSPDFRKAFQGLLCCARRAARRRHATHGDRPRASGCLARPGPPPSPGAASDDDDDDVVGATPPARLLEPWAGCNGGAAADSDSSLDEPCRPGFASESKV
5-hydroxytryptamine receptor 2B, sequence (P41595 whole entry): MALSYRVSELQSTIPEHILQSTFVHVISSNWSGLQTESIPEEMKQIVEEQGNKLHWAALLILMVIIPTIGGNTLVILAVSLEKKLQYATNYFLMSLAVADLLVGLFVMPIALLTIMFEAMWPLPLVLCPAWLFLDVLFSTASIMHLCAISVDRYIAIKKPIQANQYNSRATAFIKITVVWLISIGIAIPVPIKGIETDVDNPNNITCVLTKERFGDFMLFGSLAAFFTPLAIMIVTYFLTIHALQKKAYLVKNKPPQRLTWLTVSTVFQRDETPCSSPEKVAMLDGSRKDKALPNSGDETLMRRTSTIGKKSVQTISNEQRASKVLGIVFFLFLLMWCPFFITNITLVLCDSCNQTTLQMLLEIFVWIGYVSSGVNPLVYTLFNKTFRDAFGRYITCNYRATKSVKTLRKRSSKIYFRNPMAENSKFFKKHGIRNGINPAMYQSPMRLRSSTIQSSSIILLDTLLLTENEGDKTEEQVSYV

Row | Molecule | IC50 [1] | IC50 ([2]; cho-k1) | IC50 [3] | IC50 [4] | Ki [4] | IC50 ([5]; hek293) | IC50 [6] | Ki [6] | IC50 [7] | IC50 (Caspase-1) | IC50 ([2]; read-out: IC50) | Ki ([2]; read-out: Ki) | Ki [5] | IC50 ([5]; read-out: IC50) | Ki [1] | Ki ([2]; cho-k1) | Ki [3] | Ki [7] | Ki (Caspase-1)
1 | COc1cc(N)nc2[nH]c(-c3ccc(F)cc3)c(-c3ccncc3)c12 | Not Active | Not Active | Not Active | Not Active | Not Active | Not Active | Not Active | Not Active | Not Active | Not Active |  |  |  |  |  |  |  |  | 
2 | CNS(=O)(=O)Cc1ccc2[nH]cc(CCN(C)C)c2c1 | Not Active | Not Active | Not Active | Not Active | Not Active | Not Active | Not Active | Not Active | Not Active | Not Active |  |  |  |  |  |  |  |  | 
3 | CCCc1nn(C)c2c(=O)[nH]c(-c3cc(S(=O)(=O)N4CCN(C)CC4)ccc3OCC)nc12 | Not Active | Not Active | Not Active | Not Active | Not Active | Not Active | Not Active | Not Active | Not Active | Not Active |  |  |  |  |  |  |  |  | 
4 | COc1ccc(/C=C/C(=O)Nc2ccccc2C(=O)O)cc1OC | Not Active | Not Active | Not Active | Not Active | Not Active | Not Active | Not Active | Not Active | Not Active | Not Active |  |  |  |  |  |  |  |  | 
5 | CCOC(N)=O | Not Active | Not Active | Not Active | Not Active | Not Active | Not Active | Not Active | Not Active | Not Active | Not Active |  |  |  |  |  |  |  |  | 
6 | CC(=O)Nc1nnc(S(N)(=O)=O)s1 [ACETAZOLAMIDE] | Not Active | Not Active | Not Active |  |  | Not Active |  |  | Not Active | Not Active |  |  |  |  |  |  |  |  | 
7 | O=c1[nH]c2ccccc2n1CCCN1CCC(n2c(=O)[nH]c3cc(Cl)ccc32)CC1 [DOMPERIDONE] | Not Active |  | Not Active |  |  |  |  |  | Not Active | Not Active |  |  |  |  |  |  |  |  | 
8 | CC1=C(CC(=O)O)c2cc(F)ccc2/C1=C\c1ccc(S(C)(=O)=O)cc1 [EXISULIND] | Not Active | Not Active | Not Active | Not Active | Not Active | Not Active | Not Active | Not Active | Not Active | Not Active |  |  |  |  |  |  |  |  | 
9 | CC(C)OC(=O)C(C)(C)Oc1ccc(C(=O)c2ccc(Cl)cc2)cc1 [FENOFIBRATE] | Not Active | Not Active | Not Active |  |  | Not Active |  |  | Not Active | Not Active |  |  |  |  |  |  |  |  | 
10 | OCCN1CCN(CCCN2c3ccccc3Sc3ccc(C(F)(F)F)cc32)CC1 [FLUPHENAZINE] | Not Active |  | Not Active |  |  |  |  |  | Not Active | Not Active | 0.039 µM | 0.025 µM | 9.89 µM | 24.7 µM |  |  |  |  | 
11 | CN1C2CCCC1CC(NC(=O)c1nn(C)c3ccccc13)C2 (centres undefined) [GRANISETRON] | Not Active | Not Active | Not Active |  |  | Not Active |  |  | Not Active | Not Active |  |  |  |  |  |  |  |  | 
12 | Nc1nc2c(c(=O)[nH]1)N(C=O)C(CNc1ccc(C(=O)N[C@@H](CCC(=O)O)C(=O)O)cc1)CN2 (some centres undefined) [LEUCOVORIN] | Not Active | Not Active | Not Active | Not Active | Not Active | Not Active | Not Active | Not Active | Not Active | Not Active |  |  |  |  |  |  |  |  | 
13 | C[C@@H](O)[C@H]1C(=O)N2C(C(=O)O)=C(S[C@@H]3CN[C@H](C(=O)N(C)C)C3)[C@H](C)[C@H]12 [MEROPENEM] | Not Active | Not Active | Not Active | Not Active | Not Active | Not Active | Not Active | Not Active | Not Active | Not Active |  |  |  |  |  |  |  |  | 
14 | CC[C@@H](CO)NC(=O)[C@@H]1C=C2c3cccc4c3c(cn4C)C[C@H]2N(C)C1 [METHYSERGIDE] |  |  | Not Active |  |  | Not Active |  |  | Not Active | Not Active |  |  |  |  |  |  |  |  | 
15 | CCN(CC)CC#CCOC(=O)C(O)(c1ccccc1)C1CCCCC1 (centres undefined) [OXYBUTYNIN] | Not Active |  | Not Active |  |  | Not Active |  |  | Not Active | Not Active |  |  |  |  |  |  |  |  | 
16 | C=C(C)[C@H]1Cc2c(ccc3c2O[C@@H]2COc4cc(OC)c(OC)cc4[C@@H]2C3=O)O1 [ROTENONE] | Not Active | Not Active | Not Active | Not Active | Not Active |  | Not Active | Not Active | Not Active | Not Active |  |  |  |  |  |  |  |  | 
17 | CC(C)(C)NC[C@H](O)COc1nsnc1N1CCOCC1 [TIMOLOL] |  | Not Active | Not Active | Not Active | Not Active | Not Active | Not Active | Not Active | Not Active | Not Active |  |  |  |  |  |  |  |  | 
18 | O=c1n(CCCN2CCN(c3cccc(Cl)c3)CC2)nc2ccccn12 [TRAZODONE] | Not Active |  | Not Active |  |  | Not Active |  |  | Not Active | Not Active |  |  |  |  |  |  |  |  | 
19 | O=C(O)C(Cl)(Cl)Cl [TRICHLOROACETIC ACID] | Not Active | Not Active | Not Active | Not Active | Not Active |  | Not Active | Not Active | Not Active | Not Active |  |  |  |  |  |  |  |  | 
20 | STANNOUS FLUORIDE | Not Active | Not Active | Not Active | Not Active | Not Active |  | Not Active | Not Active | Not Active | Not Active |  |  |  |  | Not Active | Not Active | Not Active | Not Active | Not Active
21 | THIMEROSAL | Not Active | Not Active | Not Active | Not Active | Not Active |  | Not Active | Not Active | Not Active | Not Active |  |  |  |  | Not Active | Not Active | Not Active | Not Active | Not Active
